Source: DBAASP
≈ marks a conversion by molar mass, not a printed value.

Key:
Experiment in all cases: ≥ marks a high value that may be exact or a test limit, other limits are often not marked, values filed in µg/mL are converted to µM
[1] = tested on: Staphylococcus aureus ATCC 43300
[2] = tested on: Pseudomonas aeruginosa ATCC 27853
[3] = tested on: Pseudomonas aeruginosa PAO1
[4] = tested on: Staphylococcus aureus ATCC 25923
[5] = tested on: Pseudomonas aeruginosa ATCC 9027
[6] = tested on: Staphylococcus aureus ATCC 6538
Bacillus subtilis = tested on: Bacillus subtilis
[7] = tested on: Candida albicans ATCC 2002
[8] = tested on: Escherichia coli ATCC 25922

Row | SMILES | MIC [4] [µM] | MIC [5] [µM] | MIC [6] [µM] | other results
1 | CC[C@H](C)[C@H](NC(=O)[C@H](CCCCN)NC(=O)[C@H](Cc1cnc[nH]1)NC(=O)[C@H](CC(N)=O)NC(=O)[C@H](Cc1c[nH]c2ccccc12)NC(=O)CNC(=O)[C@H](C)NC(=O)[C@H](CO)NC(=O)[C@@H](NC(=O)[C@@H](NC(=O)[C@@H](N)CS)C(C)C)[C@@H](C)CC)C(=O)N[C@@H](CCCN=C(N)N)C(=O)N[C@H]1CSSC[C@@H](C(=O)O)NC(=O)[C@H](CC(N)=O)NC(=O)CNC(=O)[C@H]([C@@H](C)O)NC(=O)[C@H](CC(C)C)NC(=O)[C@H](CCCCN)NC1=O [CVISAGWNHKIRCKLTGNC] | 23.8 (≈ 50 µg/mL) | – | – | MIC [1]: 23.8 µM (≈ 50 µg/mL); MIC [2]: 11.9 µM (≈ 25 µg/mL); MIC [3]: 11.9 µM (≈ 25 µg/mL)
2 | CC(C)C[C@H](NC(=O)[C@H](C)NC(=O)[C@H](CCCCN)NC(=O)[C@H](CCCCN)NC(=O)[C@H](CC(C)C)NC(=O)[C@H](Cc1ccccc1)NC(=O)[C@H](CCCCN)NC(=O)[C@H](C)NC(=O)[C@H](CC(C)C)NC(=O)[C@H](Cc1ccccc1)NC(=O)[C@H](CCCCN)NC(=O)[C@H](C)NC(=O)[C@@H](N)Cc1ccccc1)C(N)=O [FAKFLAKFLKKAL] | – | 65.6 (≈ 99.9 µg/mL) | 3.28 (≈ 5 µg/mL) | –
3 | CC[C@H](C)[C@H](NC(=O)[C@H](CC(C)C)NC(=O)[C@H](CCCCN)NC(=O)[C@H](CCCCN)NC(=O)[C@H](C)NC(=O)[C@H](CC(C)C)NC(=O)[C@H](CCCCN)NC(=O)[C@H](CCCCN)NC(=O)[C@H](CC(C)C)NC(=O)[C@H](CCCCN)NC(=O)[C@H](CCCCN)NC(=O)[C@H](C)NC(=O)[C@H](CC(C)C)NC(=O)[C@H](CCCCN)NC(=O)[C@H](CCCCN)NC(=O)[C@H](C)NC(=O)[C@@H](N)Cc1ccccc1)C(=O)NCC(=O)N[C@@H](C)C(=O)N[C@H](C(=O)N[C@@H](CC(C)C)C(=O)N[C@@H](CCCCN)C(=O)N[C@H](C(=O)O)C(C)C)C(C)C [FAKKLAKKLKKLAKKLIGAVLKV] | – | > 78.8 | 39.4 (≈ 100 µg/mL) | –
4 | CC(C)C[C@H](NC(=O)[C@H](C)NC(=O)[C@H](CCCCN)NC(=O)[C@H](CCCCN)NC(=O)[C@H](CC(C)C)NC(=O)[C@H](C)NC(=O)[C@H](CCCCN)NC(=O)[C@H](C)NC(=O)[C@H](CC(C)C)NC(=O)[C@H](CC(C)C)NC(=O)[C@H](CCCCN)NC(=O)[C@H](C)NC(=O)[C@@H](N)Cc1ccccc1)C(N)=O [FAKLLAKALKKAL] | – | 7.07 (≈ 9.99 µg/mL) | 3.53 (≈ 5 µg/mL) | –
5 | CC(C)C[C@H](NC(=O)[C@H](CCCCN)NC(=O)[C@H](CCCCN)NC(=O)[C@H](C)NC(=O)[C@H](CC(C)C)NC(=O)[C@H](CCCCN)NC(=O)[C@H](C)NC(=O)[C@H](Cc1c[nH]c2ccccc12)NC(=O)[C@H](CC(C)C)NC(=O)[C@H](CCCCN)NC(=O)[C@H](C)NC(=O)[C@@H](N)Cc1ccccc1)C(N)=O [FAKLWAKLAKKL] | – | 35.3 (≈ 50 µg/mL) | 70.6 (≈ 99.9 µg/mL) | –
6 | CC[C@H](C)[C@H](NC(=O)CNC(=O)[C@H](C)NC(=O)[C@H](C)NC(=O)[C@@H](NC(=O)[C@H](CCCCN)NC(=O)[C@H](CC(C)C)NC(=O)[C@@H](NC(=O)[C@@H]1CCCN1C(=O)CNC(=O)[C@@H](NC(=O)[C@@H](N)Cc1ccccc1)C(C)C)C(C)C)[C@@H](C)CC)C(=O)N[C@@H](CC(C)C)C(=O)N1CCC[C@H]1C(=O)N[C@H](C(=O)N[C@@H](C)C(=O)N[C@H](C(=O)N[C@H]1CSSC[C@@H](C(=O)O)NC(=O)[C@H](CCCCN)NC(=O)[C@H](CCCCN)NC(=O)[C@H](Cc2ccc(O)cc2)NC(=O)[C@H]([C@@H](C)CC)NC(=O)[C@H](CCCCN)NC1=O)[C@@H](C)CC)[C@@H](C)O [FVGPVLKIAAGILPTAICKIYKKC] | 0.459 (≈ 1.17 µg/mL) | – | – | MIC [1]: 3.68 µM (≈ 9.37 µg/mL); MIC (Bacillus subtilis): 0.919 µM (≈ 2.34 µg/mL); MIC [7]: 0.919 µM (≈ 2.34 µg/mL)
7 | CC(C)C[C@H](NC(=O)CN)C(=O)N[C@@H](CC(C)C)C(=O)N[C@@H](CC(=O)O)C(=O)N[C@@H](CC(C)C)C(=O)N[C@@H](CC(C)C)C(=O)N[C@@H](CCCCN)C(=O)N[C@@H](CC(C)C)C(=O)N[C@@H](CC(C)C)C(=O)N[C@@H](CC(C)C)C(=O)N[C@@H](CCCCN)C(=O)N[C@@H](C)C(=O)N[C@@H](C)C(=O)NCC(=O)O [GLLDLLKLLLKAAG] | 10 (≈ 14.4 µg/mL) | – | – | MIC [3]: 66 µM (≈ 94.9 µg/mL); MIC [8]: 35 µM (≈ 50.3 µg/mL)
